{
  "source": "ChEMBL document CHEMBL1122054",
  "about": "“Lysosomotropic agents. 4. Carbobenzoxyglycylphenylalanyl, a new protease-sensitive masking group for introduction into cells” (J Med Chem, 1982)",
  "key": {"Mus musculus [1]": {"organism": "Mus musculus", "test": "Toxicity toward P-815 Mastocytoma cells after 5 hr was determined as percent of [51Cr]- release from labeled cells as a measure of cell death. at a concentration of 0.282 mM. (expt III)", "assay_type": "functional"}, "Mus musculus [2]": {"organism": "Mus musculus", "test": "Toxicity toward P-815 Mastocytoma cells after 5 hr was determined as percent of [51Cr]- release from labeled cells as a measure of cell death. at a concentration of 0.281 mM. (expt IV)", "assay_type": "functional"}, "Mus musculus [3]": {"organism": "Mus musculus", "test": "Cytotoxicity was determined against mouse peritoneal macrophages (MPM) and the percent of LDH released after 24 hr was determined as a measure of cell death at a concentration of 0.561 mM (expt II)", "assay_type": "functional"}, "Mus musculus [4]": {"organism": "Mus musculus", "test": "Cytotoxicity was determined against mouse peritoneal macrophages (MPM) and the percent of LDH released after 24 hr was determined as a measure of cell death at a concentration of 0.375 mM (expt II)", "assay_type": "functional"}, "Mus musculus [5]": {"organism": "Mus musculus", "test": "Toxicity toward P-815 Mastocytoma cells after 5 hr was determined as percent of [51Cr]- release from labeled cells as a measure of cell death. at a concentration of 0.750 mM. (expt III)", "assay_type": "functional"}, "Mus musculus [6]": {"organism": "Mus musculus", "test": "Appearance of mouse peritoneal macrophages after 3h of treatment with compound at a concentration of 0.375 mM; OK", "assay_type": "functional, organism-based"}, "Mus musculus [7]": {"organism": "Mus musculus", "test": "Cytotoxicity was determined against mouse peritoneal macrophages (MPM) and the percent of LDH released after 24 hr was determined as a measure of cell death at a concentration of 0.375 mM (expt I)", "assay_type": "functional"}, "Mus musculus [8]": {"organism": "Mus musculus", "test": "Toxicity toward P-815 Mastocytoma cells after 5 hr was determined as percent of [51Cr]- release from labeled cells as a measure of cell death. at a concentration of 0.208 mM. (expt III)", "assay_type": "functional"}, "Mus musculus [9]": {"organism": "Mus musculus", "test": "Toxicity was evaluated for the compound at a concentration of 0.208 mM against […] Mastocytoma.", "assay_type": "functional"}, "Mus musculus [10]": {"organism": "Mus musculus", "test": "Toxicity toward P-815 Mastocytoma cells after 5 hr was determined as percent of [51Cr]- release from labeled cells as a measure of cell death. at a concentration of 0.257 mM. (expt III)", "assay_type": "functional"}, "Mus musculus [11]": {"organism": "Mus musculus", "test": "Toxicity was evaluated for the compound at a concentration of 0.257 mM against […] Mastocytoma.", "assay_type": "functional"}, "Mus musculus [12]": {"organism": "Mus musculus", "test": "Cytotoxicity was determined for the compound against mouse peritoneal macrophages (MPM) at a concentration of 0.541 mM.", "assay_type": "functional"}, "Mus musculus [13]": {"organism": "Mus musculus", "test": "Cytotoxicity was determined for the compound against mouse peritoneal macrophages (MPM) at a concentration of 0.514 mM.", "assay_type": "functional"}, "Mus musculus [14]": {"organism": "Mus musculus", "test": "Toxicity toward P-815 Mastocytoma cells after 5 hr was determined as percent of [51Cr]- release from labeled cells as a measure of cell death. at a concentration of 0.282 mM. (expt IV)", "assay_type": "functional"}},
  "note": "Where a SMILES comes first, the peptide text is derived from it. [ ]: non-standard residue; d: D form. The star is where a group is joined. Cbz = O=C(OCc1ccccc1)*",
  "data": [
    {"compound": "NC(=O)[C@H](Cc1ccccc1)NC(=O)CNC(=O)OCc1ccccc1", "values": [
      {"measurement": "Cr release", "setting": "Mus musculus [1]", "result": 17, "unit": "%"}
    ]},
    {"compound": "O=C(CNC(=O)OCc1ccccc1)N[C@H](Cc1ccccc1)C(=O)O", "note": "(Cbz-Gly-[dF]-OH)", "values": [
      {"measurement": "Cr release", "setting": "Mus musculus [2]", "result": 16, "unit": "%"},
      {"measurement": "LDH release", "setting": "Mus musculus [3]", "result": 17, "unit": "%"}
    ]},
    {"compound": "CCCCCCCCCCCCNCC(F)(F)F", "values": [
      {"measurement": "LDH release", "setting": "Mus musculus [4]", "result": 64, "unit": "%"},
      {"measurement": "Cr release", "setting": "Mus musculus [5]", "result": 15, "unit": "%"},
      {"measurement": "Activity", "setting": "Mus musculus [6]", "result": "OK"},
      {"measurement": "LDH release", "setting": "Mus musculus [7]", "result": 52, "unit": "%"}
    ]},
    {"compound": "O=C(CNC(=O)OCc1ccccc1)N[C@@H](Cc1ccccc1)C(=O)N(CCCl)CCCl", "values": [
      {"measurement": "Cr release", "setting": "Mus musculus [8]", "result": 16, "unit": "%"},
      {"measurement": "Toxicity", "setting": "Mus musculus [9]", "result": 100, "unit": "µg/mL"}
    ]},
    {"compound": "CCCCCCCCCCCCNC(=O)[C@@H](Cc1ccccc1)NC(=O)CN", "values": [
      {"measurement": "LDH release", "setting": "Mus musculus [4]", "result": 78, "unit": "%"},
      {"measurement": "Cr release", "setting": "Mus musculus [10]", "result": 95, "unit": "%"},
      {"measurement": "Toxicity", "setting": "Mus musculus [11]", "result": 100, "unit": "µg/mL"},
      {"measurement": "Toxicity", "setting": "Mus musculus [12]", "result": 210, "unit": "µg/mL"},
      {"measurement": "LDH release", "setting": "Mus musculus [7]", "result": 85, "unit": "%"},
      {"measurement": "Toxicity", "setting": "Mus musculus [13]", "result": 200, "unit": "µg/mL"}
    ]},
    {"compound": "NC(=O)[C@@H](Cc1ccccc1)NC(=O)CNC(=O)OCc1ccccc1", "values": [
      {"measurement": "Cr release", "setting": "Mus musculus [14]", "result": 17, "unit": "%"}
    ]}
  ]
}
